In patent publication US20040029736A1, “Promoting early establishment of potato crops by ethylene inhibitors” (Valent BioSciences Corporation, priority 2002, published 2004):
Like-named read-outs stand apart in the source and are kept apart here.

Legend:
[1] = tested on: potato microtubers; conditions: potato explants treated during initiation and growth phases of microtuber development; Suttle 1998; cited from earlier work
[2] = tested on: potato tubers; test: Example 5: sprout number and emergence from soil of MCP gas-treated potato tubers at 10° C. (Table 5); type: in vivo, Solanum tuberosum Linn; conditions: for number of emerged sprouts per potato tuber: 50 ppm MCP; for % Emergence / Sprouts/Tuber: 50 ppm MCP for 20 hr, in soil
Protocol: Potato tubers were treated with 50 ppm MCP in a closed plastic drum (30 gallon) for 20 hr and untreated potatoes served as the control. Each treatment consisted of 9 potato tubers. The treated potatoes were then planted in soil in plastic trays and placed in a ventilated chamber at 10° C. […]

[3] = tested on: potato tubers; test: Example 4: sprout number and length of potato tubers dipped in AVG or ethephon (Table 4); type: in vivo, Solanum tuberosum Linn; conditions: 1000 ppm ethephon dip; for Sprout length (cm) / Sprouts/potato: 20° C., in soil, dark chamber, 21 days after treatment
Protocol: Potato tubers were dipped in 2000 ppm AVG or 1000 ppm ethephon solution and water-dipped potatoes served as the control. Each treatment consisted of 9 potato tubers. The treated potatoes were then put in plastic trays and placed in dark ventilated chamber at 20° C. […]

[4] = tested on: potato tubers; conditions: cited from earlier work; for release from dormancy and sprouting of potato tubers: literature (Alam 1994; Minato 1979; Rama 1981; Rylski 1974)
[5] = Gold Rush, 15 days after treatment
[6] = Gold Rush, 18 days after treatment
[7] = Norkotah, 15 days after treatment
[8] = Norkotah, 18 days after treatment
[9] = Russet Burbank, 15 days after treatment
[10] = Russet Burbank, 18 days after treatment
[11] = Superior, 15 days after treatment
[12] = Superior, 18 days after treatment

Q: With `C1=CC2C=CC1C2` [2,5-norbomadiene] as the compound, how does the sprouting of microtubers [1] read?
A: caused precocious sprouting

Q: With `CC1=CC1` [MCP, 1-methylcyclopropene] as the compound, how does the “number of emerged sprouts per potato tuber” value ([2]; Russet Burbank, Norkotah, and Gold Rush) read?
A: increased

Q: What about the “number of emerged sprouts per potato tuber” value ([2]; Superior) of the same compound?
A: not

Q: What about the “% Emergence” value [2, 5] of the same compound?
A: 44%

Q: And the Sprouts/Tuber [2, 5]?
A: 0.8 B

Q: What about the “% Emergence” value [2, 6] of the same compound?
A: 56%

Q: What about the Sprouts/Tuber [2, 6] of the same compound?
A: 1.3 B

Q: And the “% Emergence” value [2, 7]?
A: 78%

Q: And the Sprouts/Tuber [2, 7]?
A: 1.7 B

Q: And the “% Emergence” value [2, 8]?
A: 78%

Q: And the Sprouts/Tuber [2, 8]?
A: 2.0 B

Q: What about the “% Emergence” value [2, 9] of the same compound?
A: 100%

Q: What about the Sprouts/Tuber [2, 9] of the same compound?
A: 2.4 B

Q: What about the “% Emergence” value [2, 10] of the same compound?
A: 100%

Q: And the Sprouts/Tuber [2, 10]?
A: 2.9 B

Q: What about the “% Emergence” value [2, 11] of the same compound?
A: 89%

Q: And the Sprouts/Tuber [2, 11]?
A: 1.2 A

Q: What about the “% Emergence” value [2, 12] of the same compound?
A: 89%

Q: What about the Sprouts/Tuber [2, 12] of the same compound?
A: 1.6 A

Q: With `O=P(O)(O)CCCl` [ethephon, 2-chloroethyl phosphonic acid] as the compound, how does the “sprouting” value ([3]; Russet Burbank and Superior) read?
A: stimulate sprouting

Q: And the “sprout elongation” value ([3]; potato tubers)?
A: did not

Q: What about the “Sprout length (cm)” value ([3]; Russet Burbank) of the same compound?
A: 15.6 A cm

Q: What about the Sprouts/potato ([3]; Russet Burbank) of the same compound?
A: 10.8 B

Q: And the “Sprout length (cm)” value ([3]; Superior)?
A: 16.8 AB cm

Q: And the Sprouts/potato ([3]; Superior)?
A: 9.9 B

Q: And the “release from dormancy and sprouting of potato tubers” value [4]?
A: enhances release from dormancy and increases sprouting

Q: Which “release from dormancy and sprouting of potato tubers” value [4] does the source give for `C=C` [ethylene] here?
A: enhances release from dormancy and increases sprouting

Q: And the sprout elongation ([4]; literature (Minato 1979; Rylski 1974))?
A: inhibit sprout elongation

Q: Which sprouting of microtubers [1] does the source give for `O=[N+]([O-])[O-].[Ag+]` [silver nitrate] here?
A: caused precocious sprouting
